Several values for one entry are separate records, joined by “and”; a condition that tells them apart may be missing. Identical values can stand only once.
Legend:
CaM = target: T1, CaM (Rattus norvegicus, UniProt P0DP29); assay: NMR titration (15N-HSQC) of 15N-CaM with Cx43CL136-158 peptides; assay type: binding; settings: result in words
T1 construct: made in house; host or cells: pAED4 vector
Procedure: (§4) All polypeptides were equilibrated in 1x phosphate-buffered saline (1x PBS) at pH 5.8 or KCl 100 mM, CaCl2 5 mM at pH 6.5 using NAP-5 columns (GE Healthcare, #17-0853-01, Chicago, MI, USA) by dialysis in Slide-A-Lyzer G2 Dialysis Cassettes, 2K MWCO (Thermo Scientific, #87717, Waltham, MA, USA).
(§5) NMR data were acquired at 7 °C or 25 °C using a 600 MHz Varian INOVA (Agilent Technologies, Santa Clara, CA, USA) or a 600 MHz Bruker Avance-III HD spectrometer (Bruker, Billerica, MA, USA) outfitted with a cryoprobe at the NMR Facility of the University of Nebraska Medical Center. […] NMR spectra were processed using NMRPipe (IBBR, Rockville, MD, USA) [46] and analyzed using NMRView (https://nmrfx.org) [47].
(§6) Data were acquired with 1024 complex points in the direct dimension and 128 complex points in the indirect dimension. Chemical shift variations were calculated according to the formula Δσ = √((ΔδHN)^2 + (ΔδN/5)^2) and plotted as a function of ligand concentration. Dissociation constants (KD) were calculated by nonlinear fitting of the titration curves using GraphPad Prism 7.0 (GraphPad Software, La Jolla, CA, USA) and averaging at least six curves.

[1] = Circular dichroism (far UV), secondary structure; assay type: physicochemical; settings: for CD structure with TFE: 1× PBS pH 5.8, up to 25% TFE, result in words
Procedure: CD experiments were performed on a JASCO J-815 CD spectrometer at 7 °C in the far UV (260–190 nm) with a 0.1 mm path length quartz cell, using a bandwidth of 1 nm, an integration time of 1 s, and a scan rate of 50 nm/min. Each spectrum is the average of 5 scans. All spectra were corrected by subtracting the solvent spectrum acquired under identical conditions. The protein concentration for each sample was 200–500 μM in 1× PBS at pH 5.8. For CD data collection in presence of TFE, 10× PBS was used to keep the final sample at a constant buffer concentration corresponding to 1x PBS. All CD data were processed using the Spectra Analysis software of Jasco Manager Version 2 (Jasco, Easton, PA, USA).

ERK1 = assay: In vitro kinase assay, ERK1 phosphorylation of GST-Cx43CT236-382; assay type: biochemical; settings: CaM ~90% saturation of Cx43CT; 6 h 30 °C; Western blot pS279/S282; three independent experiments; Student's t-test
Procedure: (§1) After incubation of 4 h at RT for Src, 6 h at 30 °C for ERK1, and 6 h at RT for ERK2, phosphorylation levels of the Cx43CT were detected by Western blot using Cx43 specific anti-phospho antibodies. Three independent experiments were performed and phosphorylation levels were quantified using the iBright Analysis Software and statistical analysis were performed in GraphPad Prism 8.0 using a Student’s t-test. p-values < 0.05 were considered statistically significant.

Src = assay: In vitro kinase assay, Src phosphorylation of GST-Cx43CT236-382; assay type: biochemical; settings: CaM ~90% saturation of Cx43CT; 4 h RT; Western blot Cx43 pY265; three independent experiments
Procedure: as §1

Cx43CT236-382 = assay: NMR titration (15N-HSQC) of 15N-Cx43CT236-382 with CaM; assay type: binding, rat; settings: Ca^+2 not present, 10 mM EGTA
Procedure: as §4, §5, §6

ERK2 = assay: In vitro kinase assay, ERK2 phosphorylation of GST-Cx43CT236-382; assay type: biochemical; settings: CaM ~90% saturation of Cx43CT; 6 h RT; Western blot pS279/S282; three independent experiments
Procedure: as §1

Cx43CT domain = settings: ref [14]; cited from earlier work
Excerpt: (§2) The CT plays a role in the trafficking, localization, and turnover of gap junction channels via numerous post-translational modifications and protein–protein interactions. The CT is also important for regulating junctional conductance and voltage sensitivity. […] Conversely, only a few protein partners have been identified to directly bind the CL. For example, in the ...

[2] = pH 5.8; ref [14]; cited from earlier work
Excerpt: as §2

[3] = tested on: Cx43 gap junction channels; settings: peptide in patch pipette; ref [15]; cited from earlier work
Excerpt: as §2

HeLa cells [4] = assay: Scrape loading dye transfer, stably transfected HeLa cells; assay type: cell-based; settings: cell layers past scrape; 100% confluent HeLa
Excerpt: (§3) Briefly, 80% confluent parental HeLa cells were transfected with Cx43 WT or ODDD mutations containing pD2529 (puromycin resistant) plasmid using Lipofectamine 2000 (Invitrogen, # 11668019) at a 1:1 (reagent:plasmid) ratio in OptiMem (Life Technologies, #31985070, Carlsbad, CA, USA) under antibiotic free conditions. After re-plating and once colonies were formed, Western blot and immunofluorescence were used to screen the clones (α-Cx43, Sigma #6219, 1:10,000, MilliporeSigma, St. Louis, MO, USA).
Cell communication was evaluated as previously described. Briefly, stably transfected HeLa cells described above were grown to 100% confluency. Media was replaced with pre-warmed dye transfer solution (0.25% Lucifer yellow CH (Life Technologies # L453) and 0.1% Texas Red 1 × 10^4 (Life Tech # D1863) in 1× PBS at 37 °C) and cells were immediately scrape-loaded with a fine edged micro-scalpel by three longitudinal scratches. After incubating at 37 °C for 4 min, cells were rinsed with 1× PBS and further incubated in antibiotic free media for 6 min. Dye spread was then stopped by washing the cells with 1× PBS containing 1 mM CaCl2 and 1 mM MgCl2. Cells were finally fixed, DAPI stained, mounted, and imaged.

HeLa cells [5] = assay: In situ Triton X-100 extraction and immunofluorescence, stably transfected HeLa cells; assay type: cell-based; settings: 1% Triton X-100 in situ extraction
Excerpt: as §3
After reaching 100% confluency, cells seeded on glass coverslips were fixed in 4% paraformaldehyde (1× PBS, pH 7.4) and then blocked in 5% goat serum (1× TBS, 0.4% Triton X-100). Coverslips were then incubated with the appropriate primary antibody (α-Cx43, Sigma #6219, 1:200) diluted in blocking buffer overnight at 4 °C. Fluorescent secondary antibody (α-Rb Alexa Fluor 488, Cell Signaling #4412, 1:300) was then applied, followed by DAPI (100 ng/mL in 1× TBS). Coverslips were mounted on a drop of SlowFade anti-fade (Life Technologies, Carlsbad, CA, USA # S36972), sealed with clear nail polish, and imaged.
The in situ detergent extraction was previously described. […]

Cx43 = assay: Ionomycin treatment and Triton X-100 solubility assay, HeLa^Cx43 cells, Western blot; assay type: cell-based; settings: 100 nM PMA, 1 μM ionomycin, 30 min; insoluble fraction
Excerpt: as §3
After reaching 100% confluency, HeLa^Cx43 cells seeded on 10-cm dishes were incubated in presence of 1 μM ionomycin (Sigma #I0634) for 2 min for equilibration and then either treated with 1 μM ionomycin only as control, or 1 μM ionomycin plus 20 mM Ca^2+, 100 nM PMA (Sigma, # P1585), or 20 mM Ca^2+/100 nM PMA and incubated for 30 min.
The Triton X-100 solubility assay was modified from a method described previously. […] Protein lysate content was quantified by the BCA assay and normalized. […] After analysis of the insoluble fraction by Western blot, quantification from three independent replicates was measured using the iBright Analysis Software (version 3.1.3, Thermo Scientific) and statistical analysis was performed in GraphPad Prism 8.0 (San Diego, CA, USA) using the Ordinary one way Anova calculation. p-values < 0.05 were considered statistically significant.

## CC[C@H](C)[C@H](NC(=O)CNC(=O)[C@H](Cc1ccc(O)cc1)NC(=O)[C@@H](N)CCCCN)C(=O)N[C@@H](CCC(=O)O)C(=O)N[C@@H](CCC(=O)O)C(=O)N[C@@H](Cc1c[nH]cn1)C(=O)NCC(=O)N[C@@H](CCCCN)C(=O)N[C@H](C(=O)N[C@@H](CCCCN)C(=O)N[C@@H](CCSC)C(=O)N[C@@H](CCCNC(=N)N)C(=O)NCC(=O)NCC(=O)N[C@@H](CC(C)C)C(=O)N[C@@H](CC(C)C)C(=O)N[C@@H](CCCNC(=N)N)C(=O)N[C@@H](C)C(=O)N[C@@H](Cc1ccc(O)cc1)C(=O)N[C@H](C(=O)N[C@H](C(=O)N[C@@H](CO)C(=O)O)[C@@H](C)CC)[C@@H](C)CC)C(C)C [T154A]
CaM
  KD compared with control (WT): little-to-no difference in KD

## Cx43CL100-155: recombinant rat full-length Cx43CL domain, residues M100-Y155 (MRKEEKLNKKEEELKVAQTDGVNVEMHLKQIEIKKFKYGIEEHGKVKMRGGLLRTY; cytoplasmic loop; UniProt P08050 100-155, looked up, fragment)
[1]
  CD structure with TFE: able to form α-helical structure
[1]; 1× PBS, pH 5.8, 7 °C, 200–500 μM, estimated by comparing previous data
  α-helical content: less than 5%

## calmodulin [CaM]
ERK1
  effect on ERK1 phosphorylation of Cx43CT: not statistically significant
Src
  inhibition of Src phosphorylation of Cx43CT: ~ 90% and 90%
Cx43CT236-382
  interaction of CaM with Cx43CT without Ca^2+: the interaction is lost when Ca^+2 is not present
ERK2
  inhibition of ERK2 phosphorylation of Cx43CT: ~ 30% and 30%

## CC[C@H](C)[C@H](NC(=O)CNC(=O)[C@H](Cc1ccc(O)cc1)NC(=O)[C@@H](N)CCCCN)C(=O)N[C@@H](CCC(=O)O)C(=O)N[C@@H](CCC(=O)O)C(=O)N[C@@H](Cc1c[nH]cn1)C(=O)NCC(=O)N[C@@H](CCCCN)C(=O)N[C@H](C(=O)N[C@@H](CCCCN)C(=O)N[C@@H](CCSC)C(=O)N[C@@H](CCC(N)=O)C(=O)NCC(=O)NCC(=O)N[C@@H](CC(C)C)C(=O)N[C@@H](CC(C)C)C(=O)N[C@@H](CCCNC(=N)N)C(=O)N[C@H](C(=O)N[C@@H](Cc1ccc(O)cc1)C(=O)N[C@H](C(=O)N[C@H](C(=O)N[C@@H](CO)C(=O)O)[C@@H](C)CC)[C@@H](C)CC)[C@@H](C)O)C(C)C [R148Q]
CaM
  KD compared with control (WT): little-to-no difference in KD

## Cx43L2: synthetic peptide, Cx43CL residues D119-K144
[1]
  CD structure with TFE: clearly adopted an α-helical structure
Cx43CT domain
  affinity for the CT at pH 5.8 compared with pH 7.4: greater than at pH 7.4
[2]
  secondary structure: two short α-helices
[3]
  effect on single channel behaviour: interfered with the occurrence of the residual state and prolonged open time

## CC[C@H](C)[C@H](NC(=O)CNC(=O)[C@H](Cc1ccc(O)cc1)NC(=O)[C@@H](N)CCCCN)C(=O)N[C@@H](CCC(=O)O)C(=O)N[C@@H](CCC(=O)O)C(=O)N[C@@H](Cc1c[nH]cn1)C(=O)NCC(=O)N[C@@H](CCCCN)C(=O)N[C@H](C(=O)N[C@@H](CCCCN)C(=O)N[C@H](C(=O)N[C@@H](CCCNC(=N)N)C(=O)NCC(=O)NCC(=O)N[C@@H](CC(C)C)C(=O)N[C@@H](CC(C)C)C(=O)N[C@@H](CCCNC(=N)N)C(=O)N[C@H](C(=O)N[C@@H](Cc1ccc(O)cc1)C(=O)N[C@H](C(=O)N[C@H](C(=O)N[C@@H](CO)C(=O)O)[C@@H](C)CC)[C@@H](C)CC)[C@@H](C)O)[C@@H](C)O)C(C)C [M147T]
CaM
  KD compared with control (WT): little-to-no difference in KD

## Cx43 WT: Cx43 wild type stably expressed in HeLa cells
HeLa cells [4]
  Lucifer Yellow dye transfer: greater than a fifth-order dye transfer
HeLa cells [5]
  Triton X-100 solubility / localization: only a small amount of Cx43 washed away in the presence of Triton X-100

## Cx43L1: synthetic peptide, Cx43CL residues M100-A116 (MRKEEKLNKKEEELKVA; UniProt P08050 100-116, looked up, fragment)
[1]
  CD structure with TFE: at 25% of TFE, the spectrum was still typical of a predominantly random coiled protein

## Cx43CL100-158: recombinant rat Cx43CL construct, residues M100-S158 (MRKEEKLNKKEEELKVAQTDGVNVEMHLKQIEIKKFKYGIEEHGKVKMRGGLLRTYIIS; cytoplasmic loop; UniProt P08050 100-158, looked up, fragment)
[1]
  CD structure with TFE: did not elicit the same degree of α-helical content as Cx43CL100-155

## CCCCCCCCCCCCCC(=O)O[C@@H]1[C@@H](C)[C@@]2(O)[C@@H](C=C(CO)C[C@]3(O)C(=O)C(C)=C[C@@H]23)[C@@H]2C(C)(C)[C@]12OC(C)=O [PMA]
Cx43
  Y265 phosphorylation: increasing Y265 phosphorylation
  level of total Cx43 at the plaque: decreased the level of total Cx43 at the plaque

From PMC7602980 (Biomolecules, 2020)
